We go through two compounds from ChEMBL document CHEMBL1201862, “PubChem BioAssay data set” (2004).

Assay [1] has as its target ATP-dependent molecular chaperone HSP82 (Candida albicans (strain WO-1) (Yeast), UniProt C4YTQ8). The assay is described as follows: steroid-induced GRE reporter decrease in yeast – S. cerevisiae, luminescence, Hsp90 inhibitor project, dose response (AID 2400).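 Also: beta-galactosidase luminescence from glucocorticoid response element reporter as proxy for Hsp90 function; inhibitor potency where signal loss means Hsp90 inhibition.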 It counts as functional, cell-based.
Assay [2] concerns the target Serine/threonine-protein kinase D2 (Homo sapiens, UniProt Q9BZL6). It counts as functional.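 Also: measured against PRKD2 as one member of a kinome-wide kinase profiling panel.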
The target in assay [3] is Tyrosine-protein kinase SYK (Homo sapiens, UniProt P43405). The format is functional.
Another assay deals with Activin receptor type-1 (Homo sapiens, UniProt Q04771). The assay is described as follows: Navigating the Kinome. Panel member name: ACVR1. The format is functional.
Assay [4] deals with Testis-specific serine/threonine-protein kinase 1 (Homo sapiens, UniProt Q9BXA7). It counts as functional.
Assay [5] deals with Calcium/calmodulin-dependent protein kinase kinase 2 (Homo sapiens, UniProt Q96RR4). The experiment in a line: Navigating the Kinome. Panel member name: CAMKK2. It counts as functional.
In assay [6] the target is High affinity nerve growth factor receptor (Homo sapiens, UniProt P04629). The format is functional.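 Also: NTRK1 tested as one member of a kinome-wide profiling panel.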
For the next assay, the target named is Insulin receptor (Homo sapiens, UniProt P06213). The format is functional.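 Also: insulin receptor kinase tested as one member of a kinome-wide kinase panel.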
The target of assay [7] is Protein-tyrosine kinase 2-beta (Homo sapiens, UniProt Q14289). It counts as functional.
Assay [8] has as its target Proto-oncogene tyrosine-protein kinase Src (Homo sapiens, UniProt P12931). The format is functional.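 Also: SRC entry within a kinome-wide kinase profiling panel.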
The target in assay [9] is Hepatocyte growth factor receptor (Homo sapiens, UniProt P08581). It counts as functional.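 Also: kinase panel profiling across the kinome, with MET as the panel member.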
Assay [10] concerns the target Calcium/calmodulin-dependent protein kinase type II subunit beta (Homo sapiens, UniProt Q13554). It counts as functional.
In assay [11] the target is Insulin-like growth factor 1 receptor (Homo sapiens, UniProt P08069). The experiment in a line: Navigating the Kinome. Panel member name: IGF1R. The format is functional.
Assay [12] concerns the target Protein kinase C iota type (Homo sapiens, UniProt P41743). It counts as functional.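 Also: measured within a kinome-wide kinase panel, PRKCI as panel member.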
Assay [13] concerns the target cAMP-dependent protein kinase catalytic subunit PRKX (Homo sapiens, UniProt P51817). The format is functional.
A further assay concerns the target Focal adhesion kinase 1 (Homo sapiens, UniProt Q05397). The format is functional.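 Also: measured as one member of a kinome panel.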
For assay [14], the target named is Cyclin-dependent kinase 19 (Homo sapiens, UniProt Q9BWU1). The experiment in a line: Navigating the Kinome. Panel member name: CDC2L6. It counts as functional.
The target in assay [15] is Serine/threonine-protein kinase Nek2 (Homo sapiens, UniProt P51955). The format is functional.
Assay [16] addresses Serine/threonine-protein kinase PLK1 (Homo sapiens, UniProt P53350). The format is functional.
Assay [17] deals with Lymphokine-activated killer T-cell-originated protein kinase (Homo sapiens, UniProt Q96KB5). It counts as functional.
Assay [18] has as its target Calcium/calmodulin-dependent protein kinase type II subunit alpha (Homo sapiens, UniProt Q9UQM7). The experiment in a line: Navigating the Kinome. Panel member name: CAMK2A. The format is functional.

Calls of active or inactive are those of the source. Some results are limits rather than exact numbers.

Chain of Insulin receptor (P06213 28-758 limits assumed): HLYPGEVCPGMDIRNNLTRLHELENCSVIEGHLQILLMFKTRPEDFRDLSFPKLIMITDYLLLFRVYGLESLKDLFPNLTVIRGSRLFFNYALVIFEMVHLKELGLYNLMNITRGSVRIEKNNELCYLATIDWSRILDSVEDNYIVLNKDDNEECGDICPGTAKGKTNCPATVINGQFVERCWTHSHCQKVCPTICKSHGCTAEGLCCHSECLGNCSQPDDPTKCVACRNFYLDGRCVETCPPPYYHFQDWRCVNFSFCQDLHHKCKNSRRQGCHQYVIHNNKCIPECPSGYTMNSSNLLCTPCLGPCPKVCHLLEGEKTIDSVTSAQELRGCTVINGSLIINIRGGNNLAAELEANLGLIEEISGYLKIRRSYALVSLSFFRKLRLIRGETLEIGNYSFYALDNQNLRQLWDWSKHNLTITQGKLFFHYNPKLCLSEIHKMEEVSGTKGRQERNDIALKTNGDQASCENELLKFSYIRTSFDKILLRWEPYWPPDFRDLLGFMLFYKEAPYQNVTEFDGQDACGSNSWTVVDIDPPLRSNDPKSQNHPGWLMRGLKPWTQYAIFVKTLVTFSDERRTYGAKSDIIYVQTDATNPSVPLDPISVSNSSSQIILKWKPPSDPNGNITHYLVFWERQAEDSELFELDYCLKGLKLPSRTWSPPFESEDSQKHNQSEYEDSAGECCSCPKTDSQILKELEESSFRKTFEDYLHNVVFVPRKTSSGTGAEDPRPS
Chain of Insulin receptor (P06213 763-1382 limits assumed): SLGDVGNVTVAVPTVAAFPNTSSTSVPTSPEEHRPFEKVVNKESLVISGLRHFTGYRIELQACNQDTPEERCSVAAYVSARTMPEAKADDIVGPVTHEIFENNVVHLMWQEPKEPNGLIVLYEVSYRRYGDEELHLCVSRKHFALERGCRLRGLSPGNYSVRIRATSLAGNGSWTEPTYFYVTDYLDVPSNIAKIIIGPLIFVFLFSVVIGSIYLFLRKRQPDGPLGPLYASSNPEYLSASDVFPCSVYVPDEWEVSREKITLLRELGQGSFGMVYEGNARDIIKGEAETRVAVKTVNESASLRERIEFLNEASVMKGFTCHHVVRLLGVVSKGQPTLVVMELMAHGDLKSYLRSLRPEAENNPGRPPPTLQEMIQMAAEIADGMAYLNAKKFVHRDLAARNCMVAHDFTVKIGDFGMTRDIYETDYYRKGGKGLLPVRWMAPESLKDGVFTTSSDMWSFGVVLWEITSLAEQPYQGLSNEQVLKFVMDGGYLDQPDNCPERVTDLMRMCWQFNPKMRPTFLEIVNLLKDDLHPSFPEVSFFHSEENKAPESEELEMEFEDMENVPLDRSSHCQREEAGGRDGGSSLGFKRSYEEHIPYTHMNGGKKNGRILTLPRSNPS
Chain of cAMP-dependent protein kinase catalytic subunit PRKX (P51817 whole entry): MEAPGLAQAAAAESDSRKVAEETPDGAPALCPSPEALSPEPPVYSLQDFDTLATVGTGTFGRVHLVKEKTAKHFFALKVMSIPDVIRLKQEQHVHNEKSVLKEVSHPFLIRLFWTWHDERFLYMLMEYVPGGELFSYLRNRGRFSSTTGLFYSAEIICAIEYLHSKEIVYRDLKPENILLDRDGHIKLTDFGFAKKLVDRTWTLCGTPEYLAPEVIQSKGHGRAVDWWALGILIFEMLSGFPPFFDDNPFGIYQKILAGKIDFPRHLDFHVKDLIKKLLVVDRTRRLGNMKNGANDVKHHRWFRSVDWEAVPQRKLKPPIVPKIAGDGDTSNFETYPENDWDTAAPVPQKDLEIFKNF
Chain of ATP-dependent molecular chaperone HSP82 (C4YTQ8 whole entry): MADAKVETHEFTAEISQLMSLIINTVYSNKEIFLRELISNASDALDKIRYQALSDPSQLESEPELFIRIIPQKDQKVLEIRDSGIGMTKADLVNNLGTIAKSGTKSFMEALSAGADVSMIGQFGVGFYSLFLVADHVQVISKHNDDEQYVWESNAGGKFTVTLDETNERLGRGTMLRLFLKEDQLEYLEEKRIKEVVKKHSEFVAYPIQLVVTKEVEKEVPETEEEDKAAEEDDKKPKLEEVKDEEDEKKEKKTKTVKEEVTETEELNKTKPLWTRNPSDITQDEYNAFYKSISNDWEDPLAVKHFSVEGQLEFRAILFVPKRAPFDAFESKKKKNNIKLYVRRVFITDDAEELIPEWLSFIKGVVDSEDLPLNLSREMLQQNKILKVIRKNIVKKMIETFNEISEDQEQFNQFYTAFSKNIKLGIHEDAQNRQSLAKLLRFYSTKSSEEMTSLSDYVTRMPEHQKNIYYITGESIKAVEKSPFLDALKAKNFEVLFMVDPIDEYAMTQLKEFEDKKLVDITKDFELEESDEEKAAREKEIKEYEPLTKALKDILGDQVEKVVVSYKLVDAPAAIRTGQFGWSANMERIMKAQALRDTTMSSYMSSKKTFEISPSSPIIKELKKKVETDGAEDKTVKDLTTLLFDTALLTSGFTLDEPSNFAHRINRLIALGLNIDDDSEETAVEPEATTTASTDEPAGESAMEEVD
Chain of Calcium/calmodulin-dependent protein kinase type II subunit beta (Q13554 whole entry): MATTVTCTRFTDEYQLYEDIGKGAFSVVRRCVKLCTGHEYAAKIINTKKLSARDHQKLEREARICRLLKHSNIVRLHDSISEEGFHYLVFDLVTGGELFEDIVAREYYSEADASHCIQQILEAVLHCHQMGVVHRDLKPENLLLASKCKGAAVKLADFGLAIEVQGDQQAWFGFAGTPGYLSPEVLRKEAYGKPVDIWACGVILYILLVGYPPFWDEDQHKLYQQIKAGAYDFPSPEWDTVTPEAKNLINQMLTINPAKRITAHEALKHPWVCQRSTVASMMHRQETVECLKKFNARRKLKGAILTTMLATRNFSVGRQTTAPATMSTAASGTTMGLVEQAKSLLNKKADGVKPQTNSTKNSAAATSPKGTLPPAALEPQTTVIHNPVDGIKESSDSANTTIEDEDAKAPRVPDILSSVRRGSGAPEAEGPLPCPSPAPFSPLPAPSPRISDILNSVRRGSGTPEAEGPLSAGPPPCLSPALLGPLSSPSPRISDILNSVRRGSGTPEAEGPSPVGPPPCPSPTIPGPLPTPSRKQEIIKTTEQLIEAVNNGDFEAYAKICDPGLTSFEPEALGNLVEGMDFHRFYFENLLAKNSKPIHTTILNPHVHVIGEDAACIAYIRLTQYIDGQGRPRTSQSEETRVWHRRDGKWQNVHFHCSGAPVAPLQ
Chain of Insulin-like growth factor 1 receptor (P08069 31-736 limits assumed): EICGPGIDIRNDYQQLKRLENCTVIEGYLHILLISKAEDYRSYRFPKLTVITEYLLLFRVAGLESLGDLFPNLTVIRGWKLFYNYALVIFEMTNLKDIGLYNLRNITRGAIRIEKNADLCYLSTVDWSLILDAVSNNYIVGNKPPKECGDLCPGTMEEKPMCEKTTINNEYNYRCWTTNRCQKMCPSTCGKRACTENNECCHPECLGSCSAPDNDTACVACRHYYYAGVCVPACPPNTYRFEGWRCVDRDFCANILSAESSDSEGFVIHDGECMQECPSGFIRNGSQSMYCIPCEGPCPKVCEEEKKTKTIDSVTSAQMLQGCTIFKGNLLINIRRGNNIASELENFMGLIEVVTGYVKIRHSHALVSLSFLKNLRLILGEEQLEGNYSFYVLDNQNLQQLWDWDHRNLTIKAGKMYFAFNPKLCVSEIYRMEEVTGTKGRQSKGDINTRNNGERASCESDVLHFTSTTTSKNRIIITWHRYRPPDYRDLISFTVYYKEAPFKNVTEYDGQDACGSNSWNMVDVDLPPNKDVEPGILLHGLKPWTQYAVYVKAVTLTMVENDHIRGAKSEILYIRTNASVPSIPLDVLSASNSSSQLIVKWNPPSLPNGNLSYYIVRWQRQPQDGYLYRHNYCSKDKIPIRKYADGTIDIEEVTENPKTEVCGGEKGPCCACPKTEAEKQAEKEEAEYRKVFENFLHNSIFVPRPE
Chain of Insulin-like growth factor 1 receptor (P08069 741-1367 limits assumed): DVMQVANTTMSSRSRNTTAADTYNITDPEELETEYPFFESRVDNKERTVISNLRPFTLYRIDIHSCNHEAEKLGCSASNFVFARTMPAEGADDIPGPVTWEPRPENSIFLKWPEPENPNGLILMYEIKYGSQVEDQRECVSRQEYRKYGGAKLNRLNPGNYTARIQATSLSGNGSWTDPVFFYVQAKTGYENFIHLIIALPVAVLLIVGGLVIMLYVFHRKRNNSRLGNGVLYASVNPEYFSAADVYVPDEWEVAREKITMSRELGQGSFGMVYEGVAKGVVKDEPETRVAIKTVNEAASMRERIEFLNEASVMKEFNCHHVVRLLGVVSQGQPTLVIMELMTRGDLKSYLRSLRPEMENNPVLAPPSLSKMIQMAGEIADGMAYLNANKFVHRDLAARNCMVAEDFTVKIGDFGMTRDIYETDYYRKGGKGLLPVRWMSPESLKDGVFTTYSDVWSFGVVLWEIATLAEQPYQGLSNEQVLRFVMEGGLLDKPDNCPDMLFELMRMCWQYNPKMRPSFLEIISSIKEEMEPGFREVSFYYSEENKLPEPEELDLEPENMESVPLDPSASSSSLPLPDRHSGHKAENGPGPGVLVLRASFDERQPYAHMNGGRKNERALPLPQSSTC
Chain of Cyclin-dependent kinase 19 (Q9BWU1 whole entry): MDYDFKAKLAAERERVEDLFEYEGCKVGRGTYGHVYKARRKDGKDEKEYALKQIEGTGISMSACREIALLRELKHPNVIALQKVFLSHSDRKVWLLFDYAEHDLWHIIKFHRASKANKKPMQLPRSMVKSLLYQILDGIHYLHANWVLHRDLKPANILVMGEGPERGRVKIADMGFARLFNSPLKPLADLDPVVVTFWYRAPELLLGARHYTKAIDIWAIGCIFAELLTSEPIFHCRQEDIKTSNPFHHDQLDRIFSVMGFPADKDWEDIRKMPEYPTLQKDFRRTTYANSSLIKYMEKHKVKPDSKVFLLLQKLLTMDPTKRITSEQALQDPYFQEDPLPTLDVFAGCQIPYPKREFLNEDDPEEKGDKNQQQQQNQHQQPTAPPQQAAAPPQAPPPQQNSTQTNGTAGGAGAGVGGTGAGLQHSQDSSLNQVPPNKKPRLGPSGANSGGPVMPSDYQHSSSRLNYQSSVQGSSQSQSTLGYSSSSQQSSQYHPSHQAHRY

Regarding `CCCn1nc([N+](=O)[O-])c(C(C#N)c2nc3ccccc3s2)c(Cl)c1=O` (stereo unspecified), in assay [1], the EC50 (commonly the concentration needed to bring the measured effect to its halfway point) is 10700 nM (active).
Consider `NCCCn1cc(-c2cc(-c3cc4ccccc4s3)c3[nH]ncc3c2)c2nc(N)ncc21`, for which the Ki (usually the equilibrium dissociation constant of an inhibitor or competing ligand from its target) in assay [2] is 50.1 nM (active); in assay [3], 100 nM (active); at Activin receptor type-1, > 3160 nM (inactive); in assay [4], 251 nM (active); in assay [5], > 2510 nM (inactive); in assay [6], > 2510 nM (inactive). The Ki at Insulin receptor is > 5010 nM (inactive); in assay [7], 251 nM (active); in assay [8] it was > 2000 nM (inactive); in assay [9] it was > 2000 nM (inactive); in [10] it was 3160 nM (active); in [11], > 2000 nM (inactive). Besides, the Ki in [12] was 3.16 nM (active); in assay [13], 3.16 nM (active); on Focal adhesion kinase 1, > 5010 nM (inactive); in [14], 398 nM (active); in assay [15], > 10000 nM (inactive); in [16] it was > 7940 nM (inactive). Further, the results for the Ki in assay [17] and in [18] were 2510 nM (active) and > 5010 nM (inactive), respectively.
